Reference: patent publication US20220235065A1 (Epizyme, Inc., priority 2016, published 2022)
Counter-ions that a name gives are not always drawn.

What follows are molecules tested against T1, recombinant purified human EHMT2 913-1193 (Homo sapiens, UniProt Q96KQ7) (assay: EHMT2 enzyme assay on histone peptide substrate (3H-SAM Flashplate)). Details: read-out: EHMT2 PEP (IC50 μM).
T1 construct: Recombinant purified human EHMT2 913-1193 (55 μM) synthesized by Viva was used for all experiments; purchased Viva
T1 sequence (Q96KQ7 913-1193): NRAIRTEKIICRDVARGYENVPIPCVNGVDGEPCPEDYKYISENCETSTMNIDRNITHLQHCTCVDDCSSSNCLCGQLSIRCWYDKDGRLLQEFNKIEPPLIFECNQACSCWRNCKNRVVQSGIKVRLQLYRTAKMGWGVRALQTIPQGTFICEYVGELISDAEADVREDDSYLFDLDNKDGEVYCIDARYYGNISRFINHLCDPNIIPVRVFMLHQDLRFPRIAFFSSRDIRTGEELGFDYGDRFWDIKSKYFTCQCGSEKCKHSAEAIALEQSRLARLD
Type: biochemical
Method: Recombinant purified human EHMT2 913-1193 (55 μM) synthesized by Viva was used for all experiments. Biotinylated histone peptides were synthesized by Biopeptide and HPLC-purified to >95% purity. Streptavidin Flashplates and seals were purchased from PerkinElmer and 384 Well V-bottom Polypropylene Plates were from Greiner. ^3H-labeled S-adenosylmethionine (3H-SAM) was obtained from American Radiolabeled Chemicals with a specific activity of 80 Ci/mmol. Unlabeled SAM and S-adenosylhomocysteine (SAH) were obtained from American Radiolabeled Chemicals and Sigma-Aldrich respectively. Flashplates were washed in a Biotek ELx-405 with 0.1% Tween. 384-well Flashplates and 96-well filter binding plates were read on a TopCount microplate reader (PerkinElmer). Compound serial dilutions were performed on a Freedom EVO (Tecan) and spotted into assay plates using a Thermo Scientific Matrix PlateMate (Thermo Scientific). Reagent cocktails were added by Multidrop Combi (Thermo Scientific).
General Procedure for EHMT2 Enzyme Assay on Histone Peptide Substrate.
10-point curves of test compounds were made on a Freedom EVO (Tecan) using serial 3-fold dilutions in DMSO, beginning at 2.5 mM (final top concentration of compound was 50 μM and the DMSO was 2%). A 1 μL aliquot of the inhibitor dilution series was spotted in a polypropylene 384-well V-bottom plate (Greiner) using a Thermo Scientific Matrix PlateMate (Thermo Scientific). The 100% inhibition control consisted of 1 mM final concentration of the product inhibitor S-adenosylhomocysteine (SAH, Sigma-Aldrich). Compounds were incubated for 30 minutes with 40 μL per well of 0.031 nM EHMT2 (recombinant purified human EHMT2 913-1193, Viva) in 1× assay buffer (20 mM Bicine [pH 7.5], 0.002% Tween 20, 0.005% Bovine Skin Gelatin and 1 mM TCEP). 10 μL per well of substrate mix comprising assay buffer, ^3H-SAM (3H-labeled S-adenosylmethionine, American Radiolabeled Chemicals, specific activity of 80 Ci/mmol), unlabeled SAM (American Radiolabeled Chemicals), and peptide representing histone H3 residues 1-15 containing C-terminal biotin (appended to a C-terminal amide-capped lysine, synthesized by Biopeptide and HPLC-purified to greater than 95% purity) were added to initiate the reaction (both substrates were present in the final reaction mixture at their respective Km values, an assay format referred to as “balanced conditions”). Reactions were incubated for 60 minutes at room temperature and quenched with 10 μL per well of 400 μM unlabeled SAM, then transferred to a 384-well streptavidin Flashplate (PerkinElmer) and washed in a Biotek ELx-405 well washer with 0.1% Tween after 60 minutes. 384-well Flashplates were read on a TopCount microplate reader (PerkinElmer).
IC50 curves were generated using triplicate wells per concentration of compound. The IC50 is the concentration of compound at which measured methylation is inhibited by 50% as interpolated from the dose response curves. IC50 values were calculated using a non-linear regression (variable slope-four parameter fit model) with by the following formula
where Top is fixed at 100% and Bottom is fixed to 0%, [I]=concentration of inhibitor, IC50=half maximal inhibitory concentration and n=Hill Slope.
With CNc1cc(C)nc(Nc2ccc(OC)c(-c3cn4c(n3)CN(C)CC4)c2)n1 [Compound 6] the IC50 was > 10 µM.
With CNc1cc(C)nc(Nc2ccc(OC)c(-c3cn4c(n3)CNCC4)c2)n1 [Compound 7] the IC50 was 1 to 10 µM.
For CNc1cc(C)nc(Nc2ccc(OC)c(-c3nc4n(n3)CCNC4)c2)n1 [Compound 8, 2-N-(4-methoxy-3-[4H,5H,6H,7H-[1,2,4]triazolo[1,5-a]pyrazin-2-yl]phenyl)-4-N,6-dimethylpyrimidine-2,4-diamine hydrochloride], the IC50 was > 10 µM.
For CNc1cc(C)nc(Nc2ccc(OC)c(-c3nc4n(n3)CCN(C)C4)c2)n1 [Compound 9], the IC50 was > 10 µM.
For CNc1cc(C)nc(Nc2ccc(OC)c(-n3ncc4c3CCN(C)C4)c2)n1 [Compound 10], the IC50 was 0.1 to 1 µM.
For CNc1cc(C)nc(Nc2ccc(OC)c(-c3nnc(C)[nH]3)c2)n1 [Compound 11], the IC50 was > 10 µM.
With CNc1cc(C)nc(Nc2ccc(OC)c(-c3cn[nH]c3)c2)n1 [Compound 12, 2-N-[4-methoxy-3-(1H-pyrazol-4-yl)phenyl]-4-N,6-dimethylpyrimidine-2,4-diamine] the IC50 was > 10 µM.
For CNc1cc(C)nc(Nc2ccc(OC)c(-n3cc4ccccc4n3)c2)n1 [Compound 146], the IC50 was > 10 µM.
Work on CNc1cc(C)nc(Nc2ccc(OC)c(-n3cc4cc(Br)ccc4n3)c2)n1 [Compound 148] yielded an IC50 of 1 to 10 µM.
With CNc1cc(C)nc(Nc2ccc(OC)c(-n3cc4cncc(C)c4n3)c2)n1 [Compound 151] the IC50 was 0.1 to 1 µM.
In the case of CNc1cc(C)nc(Nc2ccc(OC)c(-c3ccc4nc(C)[nH]c4c3)c2)n1 [Compound 155], the IC50 is reported as > 10 µM.
With CNc1cc(C)nc(Nc2ccc(OC)c(-c3ccc4cc(C)[nH]c4c3)c2)n1 [Compound 156] the IC50 was > 10 µM.
With CNc1cc(C)nc(Nc2ccc(OC)c(-c3cc4ccncc4[nH]3)c2)n1 [Compound 157, N2-(4-methoxy-3-(1H-pyrrolo[2,3-c]pyridin-2-yl)phenyl)-N4,6-dimethylpyrimidine-2,4-diamine] the IC50 was < 0.1 µM.
CNc1cc(C)nc(Nc2ccc(OC)c(-c3cc4cnccc4n3C)c2)n1 [Compound 158] gave an IC50 of 0.1 to 1 µM.
With CNCc1cn(-c2cc(Nc3nc(C)cc(NC)n3)ccc2OC)nn1 [Compound 159, N2-(4-methoxy-3-(4-((methylamino)methyl)-1H-1,2,3-triazol-1-yl)phenyl)-N4,6-dimethylpyrimidine-2,4-diamine] the IC50 was < 0.1 µM.
In the case of CNc1cc(C)nc(Nc2ccc(OC)c(-n3cc(CN(C)C)c(C)n3)c2)n1 [Compound 160], the IC50 is reported as < 0.1 µM.
CNc1nc2cc(-n3cc(CN(C)C)nn3)c(OC)cc2n1C [Compound 163] was tested, and the IC50 was 1 to 10 µM.
In the case of CNc1cc(C)nc(Nc2ccc(OC)c(-n3cc(C(C)NC)nn3)c2)n1 (stereo not shown) [Compound 164], the IC50 is reported as 0.1 to 1 µM.
With CNc1cc(C)nc(Nc2ccc(OC)c(-n3cc(C(NC)C(F)(F)F)nn3)c2)n1 (stereo not shown) [Compound 165] the IC50 was > 10 µM.
With CNc1cc(C)nc(Nc2ccc(OC)c(-n3cc(C(C)(C)NC)nn3)c2)n1 [Compound 166] the IC50 was > 10 µM.
CNc1ccnc(Nc2ccc(OC)c(-n3cnc(CN(C)C)c3)c2)n1 [Compound 170] showed an IC50 of 0.1 to 1 µM.
For CNc1ccnc(Nc2ccc(OC)c(-n3cc(CN(C)C)nn3)c2)n1 [Compound 171], the IC50 was < 0.1 µM.
Work on CCNCc1cn(-c2cc(Nc3nccc(NC)n3)ccc2OC)nn1 [Compound 172] yielded an IC50 of 0.1 to 1 µM.
CNc1ccnc(Nc2ccc(OC)c(-n3cc(CNCC4CC4)nn3)c2)n1 [Compound 173] was tested, and the IC50 was 1 to 10 µM.
CNc1ccnc(Nc2ccc(OC)c(-c3cc4[nH]ncc4cn3)c2)n1 [Compound 174] was tested, and the IC50 was > 10 µM.
With CNc1ccnc(Nc2ccc(OC)c(-c3cc4[nH]ccc4cn3)c2)n1 [Compound 175, N2-(4-methoxy-3-(1H-pyrrolo[3,2-c]pyridin-6-yl)phenyl)-N4-methylpyrimidine-2,4-diamine] the IC50 was < 0.1 µM.
Work on CNc1ccnc(Nc2ccc(OC)c(-n3cc(C4CC4)nn3)c2)n1 [Compound 176] yielded an IC50 of 1 to 10 µM.
With CNc1ccnc(Nc2ccc(OC)c(-n3cc(C4COC4)nn3)c2)n1 [Compound 177] the IC50 was > 10 µM.
CNc1ccnc(Nc2ccc(OC)c(-c3ccc4cc[nH]c4c3)c2)n1 [Compound 178] was tested, and the IC50 was > 10 µM.
For CNCc1cnn(-c2cc3nc(NC)n(C)c3cc2OC)c1 [Compound 179], the IC50 was 0.1 to 1 µM.
CNCc1cnn(-c2cc(Nc3nccc(NC)n3)ccc2OC)c1 [Compound 181, N2-(4-methoxy-3-(4-((methylamino)methyl)-1H-pyrazol-1-yl)phenyl)-N4-methylpyrimidine-2,4-diamine] was tested, and the IC50 was < 0.1 µM.
CNCc1cnn(-c2cc3nc(NC)cc(C4CCOCC4)c3cc2OC)c1 [Compound 184] was tested, and the IC50 was 0.1 to 1 µM.
Molecule CCNCc1cnn(-c2cc(Nc3nccc(NC)n3)ccc2OC)c1 [Compound 185] has an IC50 of 0.1 to 1 µM.
CNCc1cnn(-c2cc3c(cc2OC)C2(CCC2)C(N)=N3)c1 [Compound 186] was tested, and the IC50 was < 0.1 µM.
In the case of CNCc1cnn(-c2cc3c(cc2OC)C2(CCC2)C(NC)=N3)c1 [Compound 187], the IC50 is reported as < 0.1 µM.
CNc1cc(C)nc(Nc2cnc(OC)c(-n3cc(C4CCCN4)cn3)c2)n1 (stereo not shown) [Compound 188] was tested, and the IC50 was 0.1 to 1 µM.
With CNc1ccnc(Nc2ccc(OC)c(-n3cc(CNC4CCC4)nn3)c2)n1 [Compound 191] the IC50 was 1 to 10 µM.
With CNC1=Nc2cc(-n3cc([C@H]4CCCN4)nn3)c(OC)cc2C12CCC2 [Compound 192] the IC50 was < 0.1 µM.
COc1cc2c(cc1-n1cc([C@H]3CCCN3)nn1)N=C(N)C21CCC1 [Compound 193] was tested, and the IC50 was < 0.1 µM.
With COc1cc2c(cc1-n1cc(C3CCCN3)nn1)N=C(N)C21CCC1 (stereo not shown) [Compound 194] the IC50 was < 0.1 µM.
Work on COc1cc2c(cc1-n1cc([C@@H]3CCCN3)nn1)N=C(N)C21CCC1 [Compound 195] yielded an IC50 of 0.1 to 1 µM.
For CNc1cc(C2CCOCC2)c2cc(OC)c(-n3cc(C4CCCN4)nn3)cc2n1 (stereo not shown) [Compound 196], the IC50 was 0.1 to 1 µM.
With CNc1cc(C)nc(Nc2ccc(OC)c(-c3[nH]c4cnccc4c3F)c2)n1 [Compound 199] the IC50 was < 0.1 µM.
CNc1cc(C)nc(Nc2ccc(OC)c(-c3[nH]c4cnccc4c3C)c2)n1 [Compound 200, N2-(4-methoxy-3-(3-methyl-1H-pyrrolo[2,3-c]pyridin-2-yl)phenyl)-N4,6-dimethylpyrimidine-2,4-diamine] was tested, and the IC50 was < 0.1 µM.
CNc1cc(C)nc(Nc2ccc(OC)c(-c3cc4ncncc4[nH]3)c2)n1 [Compound 201] showed an IC50 of 1 to 10 µM.
With COc1cc2c(cc1-c1cc3ccncc3[nH]1)N=C(N)C21CCC1 [Compound 202] the IC50 was < 0.1 µM.
CNc1cc(C)nc(Nc2cnc(OC)c(-c3cc4ccncc4[nH]3)c2)n1 [Compound 204] showed an IC50 of 1 to 10 µM.
COc1cc(NC2CCNCC2)ncc1-c1cc2ccncc2[nH]1 [Compound 205] was tested, and the IC50 was > 10 µM.
With CNc1cc(C)nc(Nc2ccc(OC)c(-c3cc4[nH]ccc4cn3)c2)n1 [Compound 206, N2-(4-methoxy-3-(1H-pyrrolo[3,2-c]pyridin-6-yl)phenyl)-N4,6-dimethylpyrimidine-2,4-diamine] the IC50 was < 0.1 µM.
In the case of CNc1cc(C)nc(Nc2ccc(OC)c(-c3cc4[nH]c(C)cc4cn3)c2)n1 [Compound 207], the IC50 is reported as < 0.1 µM.
Molecule COc1cc(NC2CCNCC2)ncc1-c1cc2[nH]ccc2cn1 [Compound 208] has an IC50 of 1 to 10 µM.
CNc1nc2cc(-c3cc4[nH]ccc4cn3)c(OC)cc2n1C [Compound 209] showed an IC50 of 1 to 10 µM.
CNc1cc(C)nc(Nc2ccc(OC)c(-c3cc4[nH]cnc4cn3)c2)n1 [Compound 210] showed an IC50 of 1 to 10 µM.
CNc1cc(C)nc(Nc2ccc(OC)c(-n3cc([C@@H]4CCCN4)nn3)c2)n1 [Compound 212, (S)—N2-(4-methoxy-3-(4-(pyrrolidin-2-yl)-1H-1,2,3-triazol-1-yl)phenyl)-N4,6-dimethylpyrimidine-2,4-diamine] was tested, and the IC50 was < 0.1 µM.
CNc1cc(C)nc(Nc2ccc(OC)c(-n3cc([C@H]4CCCN4)nn3)c2)n1 [Compound 213] was tested, and the IC50 was 0.1 to 1 µM.
